Patent US12264159B2, “Functionalized heterocycles as antiviral agents” (Enanta Pharmaceuticals, Inc., priority 2018, dated 2025)

Assays:
HBV in 2.2.15 cells = assay: 2.2.15 cells: viral product in cell lysates quantified via quantitative real time PCR; type: cell-based, hepatitis B virus (HBV); conditions: Hepatitis B virus, 120 h, day 5 post treatment, 50% reduction of viral product vs no drug controls, readout (qPCR, HBsAg or HBeAg) not specified for the column
How it was run: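 2.2.15 cells (35,000/well, DMEM/F12, 10% FBS, G418) were treated with 5-fold serial compound dilutions, 0.5% DMSO final. After 5 days, lysates were quantified by qPCR, or supernatant HBsAg/HBeAg by ELISA; EC50 is the concentration giving 50% reduction versus no-drug controls.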

[1] = Compound induced cellular toxicity in HepG2 cells, ATPlite 1Step; type: cell-based; conditions: human, three days exposure, 50% reduction of total ATP vs no drug controls
Experimental: At day 3, post seeding cells are treated with ATPlite 1Step according to the manufacturer's instructions.

Structure (SMILES) | EC50 (HBV in 2.2.15 cells) [µM] | CC50 at 3 days [1] [µM]
CNc1ncc(-c2cc3n(n2)C[C@@H](C(C)(C)C)n2cc(C(=O)O)c(=O)cc2-3)cn1 [Example 14, (R)-6-(tert-butyl)-2-(2-(methylamino)pyrimidin-5-yl)-10-oxo-5,6-dihydro-10H-pyrazolo[1,5-a]pyrido[2,2-c]pyrazine-12-carboxylic acid] | 0.2 to 1 | > 25
CC(C)(C)[C@@H]1Cn2nc(-c3ccc(C(F)(F)F)cc3)cc2-c2cc(=O)c(C(=O)O)cn21 [Example 9, (R)-6-(tert-butyl)-10-oxo-2-(4-(trifluoromethyl)phenyl)-5,6-dihydro-10H-pyrazolo[1,5-a]pyrido[2,2-c]pyrazine-12-carboxylic acid] | < 0.1 | > 25
CC(C)(C)[C@@H]1Cn2nc(-c3cccc4c3OCO4)cc2-c2cc(=O)c(C(=O)O)cn21 [Example 26, (R)-2-(benzo[d][1,3]dioxol-4-yl)-6-(tert-butyl)-10-oxo-5,6-dihydro-10H-pyrazolo[1,5-a]pyrido[2,2-c]pyrazine-12-carboxylic acid] | < 0.1 | > 25
CC(C)(C)[C@@H]1Cn2nc(-c3cccc4c3OCCCO4)cc2-c2cc(=O)c(C(=O)O)cn21 [Example 43, (R)-6-(tert-butyl)-2-(3,4-dihydro-2H-benzo[b][1,4]dioxepin-6-yl)-10-oxo-5,6-dihydro-10H-pyrazolo[1,5-a]pyrido[2,2-c]pyrazine-12-carboxylic acid] | < 0.1 | > 25
CC(C)(C)[C@@H]1Cn2ncc(-c3ccccc3)c2-c2cc(=O)c(C(=O)O)cn21 [Example 107, (R)-6-(tert-butyl)-10-oxo-1-phenyl-5,6-dihydro-10H-pyrazolo[1,5-a]pyrido[2,1-c]pyrazine-9-carboxylic acid] | < 0.1 | < 10
CC(C)[C@@H]1Cn2nc(C3CC3)c(-c3cccc(F)c3)c2-c2cc(=O)c(C(=O)O)cn21 [Example 134, (R)-2-cyclopropyl-1-(3-fluorophenyl)-6-isopropyl-10-oxo-5,6-dihydro-10H-pyrazolo[1,5-a]pyrido[2,1-c]pyrazine-9-carboxylic acid] | < 0.1 | > 25
Cc1ccccc1-c1cnn2c1-c1cc(=O)c(C(=O)O)cn1[C@H](C(C)(C)C)C2 [Example 127, (R)-6-(tert-butyl)-10-oxo-1-(o-tolyl)-5,6-dihydro-10H-pyrazolo[1,5-a]pyrido[2,1-c]pyrazine-9-carboxylic acid] | < 0.1 | > 25
CC(C)(C)[C@@H]1Cn2nc(-c3c(O)cccc3F)cc2-c2cc(=O)c(C(=O)O)cn21 [Example 47, (R)-6-(tert-butyl)-2-(2-fluoro-6-hydroxyphenyl)-10-oxo-5,6-dihydro-10H-pyrazolo[1,5-a]pyrido[2,2-c]pyrazine-12-carboxylic acid] | < 0.1 | > 25
CC(C)(C)[C@@H]1Cn2nc(-c3cccc(OC(F)(F)F)c3)cc2-c2cc(=O)c(C(=O)O)cn21 [Example 17, (R)-6-(tert-butyl)-10-oxo-2-(3-(trifluoromethoxy)phenyl)-5,6-dihydro-10H-pyrazolo[1,5-a]pyrido[2,2-c]pyrazine-12-carboxylic acid] | < 0.1 | > 25
CC(C)(C)[C@@H]1Cn2ncc(-c3c(F)ccc4c3OCO4)c2-c2cc(=O)c(C(=O)O)cn21 [Example 123, (R)-6-(tert-butyl)-1-(5-fluorobenzo[d][1,3]dioxol-4-yl)-10-oxo-5,6-dihydro-10H-pyrazolo[1,5-a]pyrido[2,1-c]pyrazine-9-carboxylic acid] | < 0.1 | > 25
CC(C)(C)[C@@H]1Cn2nc(-c3ccc(F)nc3)cc2-c2cc(=O)c(C(=O)O)cn21 [Example 38, (R)-6-(tert-butyl)-2-(6-fluoropyridin-3-yl)-10-oxo-5,6-dihydro-10H-pyrazolo[1,5-a]pyrido[2,2-c]pyrazine-12-carboxylic acid] | < 0.1 | > 25
CC(C)[C@@H]1Cn2nc(C3CC3)c(-c3ccc(O)cc3)c2-c2cc(=O)c(C(=O)O)cn21 [Example 143, (R)-2-cyclopropyl-1-(4-hydroxyphenyl)-6-isopropyl-10-oxo-5,6-dihydro-10H-pyrazolo[1,5-a]pyrido[2,1-c]pyrazine-9-carboxylic acid] | < 0.1 | > 25
CC(C)(C)[C@@H]1Cn2ncc(-c3ccccc3F)c2-c2cc(=O)c(C(=O)O)cn21 [Example 104, (R)-6-(tert-butyl)-1-(2-fluorophenyl)-10-oxo-5,6-dihydro-10H-pyrazolo[1,5-a]pyrido[2,1-c]pyrazine-9-carboxylic acid] | < 0.1 | 10 to 25
CC(C)(C)[C@@H]1Cn2nc(-c3cccc4c3OCCO4)cc2-c2cc(=O)c(C(=O)O)cn21 [Example 57, (R)-6-(tert-butyl)-2-(2,3-dihydrobenzo[b][1,4]dioxin-5-yl)-10-oxo-5,6-dihydro-10H-pyrazolo[1,5-a]pyrido[2,2-c]pyrazine-12-carboxylic acid] | < 0.1 | > 25
COc1cccc(F)c1-c1cc2n(n1)C[C@@H](C(C)(C)C)n1cc(C(=O)O)c(=O)cc1-2 [Example 50, (R)-6-(tert-butyl)-2-(2-fluoro-6-methoxyphenyl)-10-oxo-5,6-dihydro-10H-pyrazolo[1,5-a]pyrido[2,2-c]pyrazine-12-carboxylic acid] | 0.2 to 1 | > 25
CCOc1ccccc1-c1cc2n(n1)C[C@@H](C(C)(C)C)n1cc(C(=O)O)c(=O)cc1-2 [Example 48, (R)-6-(tert-butyl)-2-(2-ethoxyphenyl)-10-oxo-5,6-dihydro-10H-pyrazolo[1,5-a]pyrido[2,2-c]pyrazine-12-carboxylic acid] | < 0.1 | > 25
CC(C)(C)[C@@H]1Cn2nc(C3CC3)c(-c3ccccc3F)c2-c2cc(=O)c(-c3ncn[nH]3)cn21 [Example 198, (R)-6-(tert-butyl)-2-cyclopropyl-1-(2-fluorophenyl)-9-(1H-1,2,4-triazol-5-yl)-5,6-dihydro-10H-pyrazolo[1,5-a]pyrido[2,1-c]pyrazin-10-one] | < 0.1 | > 25
CC(C)(C)[C@@H]1Cn2nc(C3CC3)c(-c3ccco3)c2-c2cc(=O)c(C(=O)O)cn21 [Example 159, (R)-6-(tert-butyl)-2-cyclopropyl-1-(furan-2-yl)-10-oxo-5,6-dihydro-10H-pyrazolo[1,5-a]pyrido[2,1-c]pyrazine-9-carboxylic acid] | < 0.1 | > 25
O=C(O)c1cn2c(cc1=O)-c1c(-c3cccc(F)c3)c(-c3cccc(F)c3)nn1CC2 [Example 201, 1,2-bis(3-fluorophenyl)-10-oxo-5,6-dihydro-10H-pyrazolo[1,5-a]pyrido[2,1-c]pyrazine-9-carboxylic acid] | < 0.1 | > 25
CC(C)(C)[C@@H]1Cn2nc(-c3ccncc3F)cc2-c2cc(=O)c(C(=O)O)cn21 [Example 41, (R)-6-(tert-butyl)-2-(3-fluoropyridin-4-yl)-10-oxo-5,6-dihydro-10H-pyrazolo[1,5-a]pyrido[2,2-c]pyrazine-12-carboxylic acid] | < 0.1 | > 25
CC(C)(C)[C@@H]1Cn2nc(-c3cccc4nonc34)cc2-c2cc(=O)c(C(=O)O)cn21 [Example 58, (R)-2-(benzo[c][1,2,5]oxadiazol-4-yl)-6-(tert-butyl)-10-oxo-5,6-dihydro-10H-pyrazolo[1,5-a]pyrido[2,2-c]pyrazine-12-carboxylic acid] | < 0.1 | > 25
COc1ccc(O)c(-c2cc3n(n2)C[C@@H](C(C)(C)C)n2cc(C(=O)O)c(=O)cc2-3)c1 [Example 56, (R)-6-(tert-butyl)-2-(2-hydroxy-5-methoxyphenyl)-10-oxo-5,6-dihydro-10H-pyrazolo[1,5-a]pyrido[2,2-c]pyrazine-12-carboxylic acid] | < 0.1 | > 25
COc1cccc(-c2cnn3c2-c2cc(=O)c(C(=O)O)cn2[C@H](C(C)(C)C)C3)c1 [Example 113, (R)-6-(tert-butyl)-1-(3-methoxyphenyl)-10-oxo-5,6-dihydro-10H-pyrazolo[1,5-a]pyrido[2,1-c]pyrazine-9-carboxylic acid] | < 0.1 | > 25
CC(C)[C@@H]1Cn2nc(-c3ccc(F)cc3)c(-c3ccc(F)cc3)c2-c2c(F)c(=O)c(C(=O)O)cn21 [Example 187, (R)-11-fluoro-1,2-bis(4-fluorophenyl)-6-isopropyl-10-oxo-5,6-dihydro-10H-pyrazolo[1,5-a]pyrido[2,1-c]pyrazine-9-carboxylic acid] | < 0.1 | 10 to 25
CC(C)(C)[C@@H]1Cn2nc(-c3ccccc3OC(F)F)cc2-c2cc(=O)c(C(=O)O)cn21 [Example 68, (R)-6-(tert-butyl)-2-(2-(difluoromethoxy)phenyl)-10-oxo-5,6-dihydro-10H-pyrazolo[1,5-a]pyrido[2,2-c]pyrazine-12-carboxylic acid] | < 0.1 | > 25
CC(C)(C)[C@@H]1Cn2nc(C3CC3)c(-c3cccc(F)c3)c2-c2cc(=O)c(-c3ncn[nH]3)cn21 [Example 197, (R)-6-(tert-butyl)-2-cyclopropyl-1-(3-fluorophenyl)-9-(1H-1,2,4-triazol-5-yl)-5,6-dihydro-10H-pyrazolo[1,5-a]pyrido[2,1-c]pyrazin-10-one] | < 0.1 | > 25
CC(C)(C)[C@@H]1Cn2nc(-c3cc(F)c(F)cc3O)cc2-c2cc(=O)c(C(=O)O)cn21 [Example 66, (R)-6-(tert-butyl)-2-(4,5-difluoro-2-hydroxyphenyl)-10-oxo-5,6-dihydro-10H-pyrazolo[1,5-a]pyrido[2,2-c]pyrazine-12-carboxylic acid] | < 0.1 | > 25
